Results reported in the supplement of paper PMC12463676, “Small-molecule dissolution of stress granules by redox modulation benefits ALS models” (Nature Chemical Biology, 2025).

How the values were obtained:
[1] = compound: NC(=O)CCCCC1CCSS1 [lipoamide]; assay: thermal stability z-score vs DMSO; higher = more thermally stabilized by treatment; conditions: HeLa, lipoamide concentration 100 µM
Method: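 Cellular thermal proteome profiling in HeLa cells. Cells were treated with 100 µM lipoamide for 1 h, with or without 1 mM arsenate for a further 1 h, then heated to ten temperatures (37-66.3 °C), and soluble protein was quantified by TMT mass spectrometry relative to 0.1% DMSO controls. The thermal stability score (sum of log2 fold changes minus the abundance score) was transformed to a z-score; mean of n = 3 experiments.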

[2] = compound: O=[As]([O-])(O)O.[K+] [potassium arsenate]; assay: as above; conditions: HeLa; arsenate concentration 1 mM
Method: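 Cellular thermal proteome profiling in HeLa cells treated with 1 mM arsenate for 1 h (DMSO pretreatment), heated to ten temperatures (37-66.3 °C). Soluble protein was quantified by TMT mass spectrometry relative to DMSO controls; the thermal stability score was transformed to a z-score; mean of n = 3 experiments.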

[3] = arsenate co-treatment: 1 mM arsenate 1 h
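Also: each temperature applied for 3 min, abundance score taken as mean log2 fold change at the two lowest temperatures, z-score obtained by mean subtraction and division by SD.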

UBE2O (UniProt Q9C0C9)
thermal stability z-score [1, 3]: 0.0608 | thermal stability z-score ([1]; arsenate co-treatment: none): 0.277 | thermal stability z-score [2]: 0.509

DNAJC21 (UniProt Q5F1R6)
Sequence of UniProt Q5F1R6 (Q5F1R6 whole entry): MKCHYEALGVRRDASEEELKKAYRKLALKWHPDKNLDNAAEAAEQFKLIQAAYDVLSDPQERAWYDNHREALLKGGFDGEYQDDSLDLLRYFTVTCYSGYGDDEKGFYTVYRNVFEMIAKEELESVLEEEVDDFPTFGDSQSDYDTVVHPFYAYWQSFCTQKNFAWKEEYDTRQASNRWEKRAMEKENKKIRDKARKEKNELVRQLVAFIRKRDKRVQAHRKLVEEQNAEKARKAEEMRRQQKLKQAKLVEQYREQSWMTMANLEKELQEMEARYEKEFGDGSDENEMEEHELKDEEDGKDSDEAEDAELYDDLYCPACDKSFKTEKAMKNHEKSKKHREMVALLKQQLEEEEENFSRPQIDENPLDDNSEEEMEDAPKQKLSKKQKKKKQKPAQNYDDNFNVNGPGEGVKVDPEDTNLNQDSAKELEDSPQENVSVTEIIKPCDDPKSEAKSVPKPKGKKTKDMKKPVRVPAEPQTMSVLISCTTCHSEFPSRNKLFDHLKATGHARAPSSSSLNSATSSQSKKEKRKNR
thermal stability z-score [1, 3]: -0.615 | thermal stability z-score ([1]; arsenate co-treatment: none): -0.205 | thermal stability z-score [2]: 0.00418

C1ORF174 (UniProt Q8IYL3)
Sequence of UniProt Q8IYL3 (Q8IYL3 whole entry): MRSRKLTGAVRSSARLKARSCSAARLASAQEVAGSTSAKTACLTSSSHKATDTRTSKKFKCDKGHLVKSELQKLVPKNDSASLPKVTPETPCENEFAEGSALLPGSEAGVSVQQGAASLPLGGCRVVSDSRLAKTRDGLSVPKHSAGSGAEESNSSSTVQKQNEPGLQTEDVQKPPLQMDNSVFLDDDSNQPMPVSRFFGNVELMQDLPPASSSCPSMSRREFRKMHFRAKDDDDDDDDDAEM
thermal stability z-score [1, 3]: -2.39 | thermal stability z-score ([1]; arsenate co-treatment: none): -1.46 | thermal stability z-score [2]: -0.845

ETFA (UniProt P13804)
Sequence of UniProt P13804 (P13804 whole entry): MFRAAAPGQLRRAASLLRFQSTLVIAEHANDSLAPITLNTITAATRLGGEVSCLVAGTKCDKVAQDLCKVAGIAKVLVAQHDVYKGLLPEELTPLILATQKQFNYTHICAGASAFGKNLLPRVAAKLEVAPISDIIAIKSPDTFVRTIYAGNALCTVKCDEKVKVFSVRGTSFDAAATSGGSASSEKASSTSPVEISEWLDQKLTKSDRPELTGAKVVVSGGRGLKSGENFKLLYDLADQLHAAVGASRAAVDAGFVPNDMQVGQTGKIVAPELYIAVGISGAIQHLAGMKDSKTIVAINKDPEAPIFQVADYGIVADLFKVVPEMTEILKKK
thermal stability z-score [1, 3]: -0.622 | thermal stability z-score ([1]; arsenate co-treatment: none): 0.0342 | thermal stability z-score [2]: -1.17

SETDB1 (UniProt Q15047)
thermal stability z-score [1, 3]: -0.239 | thermal stability z-score ([1]; arsenate co-treatment: none): -0.253 | thermal stability z-score [2]: -0.254

MED4 (UniProt Q9NPJ6)
Sequence of UniProt Q9NPJ6 (Q9NPJ6 whole entry): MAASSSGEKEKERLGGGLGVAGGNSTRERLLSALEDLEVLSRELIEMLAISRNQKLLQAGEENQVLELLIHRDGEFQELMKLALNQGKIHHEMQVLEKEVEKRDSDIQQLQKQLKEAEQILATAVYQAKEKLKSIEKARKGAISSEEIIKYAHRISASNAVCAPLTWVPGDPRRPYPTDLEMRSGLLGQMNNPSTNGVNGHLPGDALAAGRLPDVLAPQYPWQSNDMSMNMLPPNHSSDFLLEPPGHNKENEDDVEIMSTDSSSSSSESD
thermal stability z-score [1, 3]: 0.794 | thermal stability z-score ([1]; arsenate co-treatment: none): 0.377 | thermal stability z-score [2]: -0.174

BLVRA (UniProt P53004)
thermal stability z-score [1, 3]: 0.283 | thermal stability z-score ([1]; arsenate co-treatment: none): -0.236 | thermal stability z-score [2]: -0.0313

TNRC6B (UniProt Q9UPQ9)
thermal stability z-score [1, 3]: -0.194 | thermal stability z-score ([1]; arsenate co-treatment: none): -0.00843 | thermal stability z-score [2]: -0.306

DNTTIP2 (UniProt Q5QJE6)
Sequence of UniProt Q5QJE6 (Q5QJE6 whole entry): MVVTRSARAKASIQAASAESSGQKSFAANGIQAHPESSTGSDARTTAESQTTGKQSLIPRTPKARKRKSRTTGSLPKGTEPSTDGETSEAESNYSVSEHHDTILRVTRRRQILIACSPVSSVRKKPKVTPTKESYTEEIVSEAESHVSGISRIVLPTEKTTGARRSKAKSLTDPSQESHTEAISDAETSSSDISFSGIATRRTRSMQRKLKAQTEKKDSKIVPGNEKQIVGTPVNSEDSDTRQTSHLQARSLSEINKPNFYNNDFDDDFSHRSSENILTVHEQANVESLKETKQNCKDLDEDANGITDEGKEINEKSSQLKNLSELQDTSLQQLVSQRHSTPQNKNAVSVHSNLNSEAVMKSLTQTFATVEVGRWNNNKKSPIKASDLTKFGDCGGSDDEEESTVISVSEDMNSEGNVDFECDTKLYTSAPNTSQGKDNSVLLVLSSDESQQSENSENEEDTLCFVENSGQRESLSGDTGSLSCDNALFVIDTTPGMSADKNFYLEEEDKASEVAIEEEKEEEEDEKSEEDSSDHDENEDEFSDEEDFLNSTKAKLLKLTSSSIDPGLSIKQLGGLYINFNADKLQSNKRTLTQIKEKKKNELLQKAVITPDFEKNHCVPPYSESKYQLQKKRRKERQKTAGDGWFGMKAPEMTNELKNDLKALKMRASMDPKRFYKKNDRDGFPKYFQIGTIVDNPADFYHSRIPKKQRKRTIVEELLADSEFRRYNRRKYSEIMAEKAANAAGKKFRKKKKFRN
thermal stability z-score [1, 3]: 0.201 | thermal stability z-score ([1]; arsenate co-treatment: none): 0.12 | thermal stability z-score [2]: 0.279

HMOX2 (UniProt P30519)
Sequence of UniProt P30519 (P30519 whole entry): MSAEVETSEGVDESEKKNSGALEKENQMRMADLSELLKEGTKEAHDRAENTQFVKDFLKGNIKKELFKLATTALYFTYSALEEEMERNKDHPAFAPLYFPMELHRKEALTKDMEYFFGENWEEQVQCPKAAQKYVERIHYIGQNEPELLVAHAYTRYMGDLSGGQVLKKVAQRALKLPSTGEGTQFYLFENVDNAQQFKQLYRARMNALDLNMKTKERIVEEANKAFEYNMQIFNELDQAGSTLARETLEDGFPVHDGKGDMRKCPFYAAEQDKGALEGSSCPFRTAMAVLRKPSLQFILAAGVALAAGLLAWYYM
thermal stability z-score [1, 3]: 0.676 | thermal stability z-score ([1]; arsenate co-treatment: none): 1.34 | thermal stability z-score [2]: 0.895

FER (UniProt P16591)
Sequence of UniProt P16591 (P16591 whole entry, looked up): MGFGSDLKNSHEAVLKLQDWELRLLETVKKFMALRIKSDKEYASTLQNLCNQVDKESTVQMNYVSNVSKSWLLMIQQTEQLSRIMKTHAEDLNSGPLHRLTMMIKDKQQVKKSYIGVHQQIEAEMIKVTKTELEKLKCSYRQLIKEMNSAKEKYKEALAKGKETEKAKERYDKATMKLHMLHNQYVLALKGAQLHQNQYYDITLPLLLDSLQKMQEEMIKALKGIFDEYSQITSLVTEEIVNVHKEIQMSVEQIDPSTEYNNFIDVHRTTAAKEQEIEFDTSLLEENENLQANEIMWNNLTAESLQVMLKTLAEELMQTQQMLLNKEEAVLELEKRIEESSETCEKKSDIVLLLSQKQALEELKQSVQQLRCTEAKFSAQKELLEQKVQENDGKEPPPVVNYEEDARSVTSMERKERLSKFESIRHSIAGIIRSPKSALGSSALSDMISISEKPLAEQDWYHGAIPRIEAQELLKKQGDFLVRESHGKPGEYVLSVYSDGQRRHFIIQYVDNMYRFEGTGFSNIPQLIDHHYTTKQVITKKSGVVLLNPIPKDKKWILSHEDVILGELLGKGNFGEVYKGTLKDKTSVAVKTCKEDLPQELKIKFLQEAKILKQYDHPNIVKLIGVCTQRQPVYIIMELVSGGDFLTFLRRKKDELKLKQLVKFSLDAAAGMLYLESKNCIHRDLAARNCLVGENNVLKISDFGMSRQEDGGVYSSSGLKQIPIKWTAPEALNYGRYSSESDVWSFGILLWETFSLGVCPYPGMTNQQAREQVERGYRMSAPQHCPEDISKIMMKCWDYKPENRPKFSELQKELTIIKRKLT
thermal stability z-score [1, 3]: 0.209 | thermal stability z-score ([1]; arsenate co-treatment: none): 0.182 | thermal stability z-score [2]: 0.326

WDR4 (UniProt P57081)
Sequence of UniProt P57081 (P57081 whole entry): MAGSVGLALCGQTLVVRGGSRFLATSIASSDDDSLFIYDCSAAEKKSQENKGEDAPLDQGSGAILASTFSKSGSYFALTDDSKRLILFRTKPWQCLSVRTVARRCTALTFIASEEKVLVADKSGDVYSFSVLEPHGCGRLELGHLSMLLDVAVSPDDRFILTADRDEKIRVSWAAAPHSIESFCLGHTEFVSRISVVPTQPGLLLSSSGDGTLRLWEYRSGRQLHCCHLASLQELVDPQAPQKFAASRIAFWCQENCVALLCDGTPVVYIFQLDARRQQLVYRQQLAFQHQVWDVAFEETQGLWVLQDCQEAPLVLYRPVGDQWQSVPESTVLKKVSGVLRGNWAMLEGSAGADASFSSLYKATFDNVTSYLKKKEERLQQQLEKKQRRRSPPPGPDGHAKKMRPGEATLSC
thermal stability z-score [1, 3]: -0.105 | thermal stability z-score ([1]; arsenate co-treatment: none): -0.0364 | thermal stability z-score [2]: 0.00243

ZC3H8 (UniProt Q8N5P1)
thermal stability z-score [1, 3]: -0.0194 | thermal stability z-score ([1]; arsenate co-treatment: none): -0.277 | thermal stability z-score [2]: -0.576

SNCG (UniProt O76070)
Sequence of UniProt O76070 (O76070 whole entry): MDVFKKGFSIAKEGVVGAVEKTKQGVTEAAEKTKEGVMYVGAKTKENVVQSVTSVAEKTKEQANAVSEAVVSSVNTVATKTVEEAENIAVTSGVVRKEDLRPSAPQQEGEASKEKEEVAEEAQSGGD
thermal stability z-score [1, 3]: 1.49 | thermal stability z-score ([1]; arsenate co-treatment: none): 0.999 | thermal stability z-score [2]: 0.0455

ITGA3 (UniProt P26006)
Sequence of UniProt P26006 (P26006 whole entry): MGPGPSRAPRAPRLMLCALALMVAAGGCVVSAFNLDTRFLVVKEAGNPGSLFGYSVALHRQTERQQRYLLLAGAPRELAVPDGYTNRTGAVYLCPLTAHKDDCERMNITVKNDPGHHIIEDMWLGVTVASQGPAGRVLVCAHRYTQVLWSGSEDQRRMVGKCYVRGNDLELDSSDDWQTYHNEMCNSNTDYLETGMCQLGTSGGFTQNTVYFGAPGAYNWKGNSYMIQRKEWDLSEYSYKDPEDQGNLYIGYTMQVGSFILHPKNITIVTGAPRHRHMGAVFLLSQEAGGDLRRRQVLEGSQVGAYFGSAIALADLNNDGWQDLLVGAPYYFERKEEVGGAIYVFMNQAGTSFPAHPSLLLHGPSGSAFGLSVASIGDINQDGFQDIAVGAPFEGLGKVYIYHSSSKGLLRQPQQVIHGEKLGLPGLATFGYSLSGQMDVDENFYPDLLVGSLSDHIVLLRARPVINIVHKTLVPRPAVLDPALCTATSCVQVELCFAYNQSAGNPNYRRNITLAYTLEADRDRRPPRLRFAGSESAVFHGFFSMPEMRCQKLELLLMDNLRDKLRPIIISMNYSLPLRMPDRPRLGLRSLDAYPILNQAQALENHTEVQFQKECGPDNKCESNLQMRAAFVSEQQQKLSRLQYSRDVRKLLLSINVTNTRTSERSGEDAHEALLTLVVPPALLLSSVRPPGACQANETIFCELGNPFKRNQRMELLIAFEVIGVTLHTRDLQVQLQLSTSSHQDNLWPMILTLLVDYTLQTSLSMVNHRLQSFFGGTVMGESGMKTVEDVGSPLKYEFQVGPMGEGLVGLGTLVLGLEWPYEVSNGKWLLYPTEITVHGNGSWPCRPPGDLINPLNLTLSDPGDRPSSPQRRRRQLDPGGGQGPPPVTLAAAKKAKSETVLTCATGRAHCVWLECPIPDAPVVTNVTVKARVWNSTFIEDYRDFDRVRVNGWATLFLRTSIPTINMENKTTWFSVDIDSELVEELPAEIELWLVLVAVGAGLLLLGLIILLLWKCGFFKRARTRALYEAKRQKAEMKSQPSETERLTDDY
thermal stability z-score [1, 3]: 0.122 | thermal stability z-score ([1]; arsenate co-treatment: none): 0.207 | thermal stability z-score [2]: 0.402

LIMD1 (UniProt Q9UGP4)
thermal stability z-score [1, 3]: -1.08 | thermal stability z-score ([1]; arsenate co-treatment: none): -0.705 | thermal stability z-score [2]: -5.26

ETFDH (UniProt Q16134)
thermal stability z-score [1, 3]: 0.283 | thermal stability z-score ([1]; arsenate co-treatment: none): 0.37 | thermal stability z-score [2]: -0.886

VLDLR (UniProt P98155)
thermal stability z-score [1, 3]: -0.517 | thermal stability z-score ([1]; arsenate co-treatment: none): -0.526 | thermal stability z-score [2]: -0.86
